Patent US9414587B2, “Solubilized magnolol analogs” (Cologne-Palmolive Company, priority 2011, dated 2016)

Format: physicochemical
From the text: Each of the sorbitan esters is capable of solubilizing up to 100 g per liter of neat propyl magnolol or butyl magnolol. In certain embodiments, the amount of sorbitan ester is at least 10 times the weight of the propyl magnolol or butyl magnolol in the composition.
Polysorbate 80 is capable of solubilizing up to 50 g per liter of neat isopropyl magnolol or isobutyl magnolol. In certain embodiments, the amount of polysorbate 80 is at least 20 times the weight of the isopropyl magnolol or isobutyl magnolol in the composition. It was surprising that polysorbate 80 was able to solubilize these analogs. Isobutyl magnolol is not soluble in polysorbate 20, polysorbate 40, or polysorbate 85.
Polysorbate 20 is capable of solubilizing up to 100 g per liter of neat isopropyl magnolol. In certain embodiments, the amount of polysorbate 20 is at least 10 times the weight of the isopropyl magnolol in the composition. It was surprising that polysorbate 20 was able to solubilize these analogs. Isopropyl magnolol is only soluble up to 10 g per liter in polysorbate 40 or polysorbate 85.
It was surprising that these sorbitan esters were capable of solubilizing these analogs.

In the case of `CCCCc1ccc(O)c(-c2cc(CCCC)ccc2O)c1` [butyl magnolol, 5,5′-di-n-butylbiphenyl-2,2′-diol], the “amount of neat analog that the sorbitan ester is capable of solubilizing” value is reported as “up to 100 g per liter”.

In the case of `CCCc1ccc(O)c(-c2cc(CCC)ccc2O)c1` [propyl magnolol, 5,5′-di-n-propylbiphenyl-2,2′-diol], the “amount of neat analog that the sorbitan ester is capable of solubilizing” value is reported as “up to 100 g per liter”.

For `CC(C)c1ccc(O)c(-c2cc(C(C)C)ccc2O)c1` [isopropyl magnolol, 5,5′-di-isopropylbiphenyl-2,2′-diol], the “amount of neat analog that polysorbate 20 is capable of solubilizing” value was “up to 100 g per liter”, the “amount of neat analog that polysorbate 80 is capable of solubilizing” value was “up to 50 g per liter” and the “solubility in polysorbate 40” value was “up to 10 g per liter”. The “solubility in polysorbate 85” value was “up to 10 g per liter”.

In the case of `CC(C)Cc1ccc(O)c(-c2cc(CC(C)C)ccc2O)c1` [isobutyl magnolol, 5,5′-di-isobutylbiphenyl-2,2′-diol], the “amount of neat analog that polysorbate 80 is capable of solubilizing” value is reported as “up to 50 g per liter”, the “solubility in polysorbate 20 (in words)” value is reported as “not soluble” and the “solubility in polysorbate 40 (in words)” value is reported as “not soluble”.
